Patent publication US11535643B2, “Macrolides with modified desosamine sugars and uses thereof” (President and Fellows of Harvard College, priority 2015, dated 2022)
In brackets after ≈: the same amount, converted by molar mass. Read-outs that look alike come from different tables or passages of the source.

How the values were obtained:
Format in all cases: cell-based
K. pneumoniae = assay: Broth dilution MIC determination (CLSI) against K. pneumoniae strains; conditions: for MIC: Klebsiella pneumoniae
How it was run: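 Azithromycin and solithromycin served as controls; MICs were obtained by standard CLSI broth dilution on a strain panel including multidrug-resistant and macrolide-resistant isolates.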

A. baumannii = assay: Broth dilution MIC determination (CLSI) against A. baumannii strains; conditions: for MIC: Acinetobacter baumannii
How it was run: (§1)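 Macrolide MICs come from CLSI-standard broth dilution testing of distinct strains, several multidrug-resistant, selected with attention to macrolide resistance mechanisms; two reference macrolides, azithromycin and solithromycin, were included.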

S. pyogenes = assay: Broth dilution MIC determination (CLSI) against S. pyogenes strains; conditions: for MIC: Streptococcus pyogenes
How it was run: as §1

E. faecalis = assay: Broth dilution MIC determination (CLSI) against E. faecalis strains; conditions: for MIC: Enterococcus faecalis
How it was run: as §1

E. coli = assay: Broth dilution MIC determination (CLSI) against E. coli strains; conditions: for MIC: Escherichia coli
How it was run: as §1

S. aureus = assay: Broth dilution MIC determination (CLSI) against S. aureus strains; conditions: for MIC: Staphylococcus aureus
How it was run: as §1

S. pneumoniae = assay: Broth dilution MIC determination (CLSI) against S. pneumoniae strains; conditions: for MIC: Streptococcus pneumoniae
How it was run: as §1

H. influenzae = assay: Broth dilution MIC determination (CLSI) against H. influenzae strains; conditions: for MIC: Haemophilus influenzae
From the text: Minimum inhibitory concentrations (MICs) for macrolides described herein have been determined for unique strains of S. aureus, S. pneumoniae, S. pyogenes, E. faecalis, E. coli, A. baumannii, K. pneumoniae, P. aeruginosa, and H. influenzae, including several multidrug-resistant strains, with a special focus on macrolide resistant mechanisms. Azithromycin and solithromycin were included as control compounds. CLSI standard procedures for broth dilution MIC determination were used. Data for exemplary compounds described herein is shown in Tables M1-M7 and in Tables N1-N4.

P. aeruginosa = assay: Broth dilution MIC determination (CLSI) against P. aeruginosa strains
How it was run: as §1

CC[C@H]1OC(=O)[C@H](C)C(=O)[C@H](C)[C@@H](O[C@@H]2OC(CN(CCN)CCN)CC(N(C)C)C2O)[C@](C)(OC)C[C@@H](C)CN[C@H](C)[C@H]2N(CCCCn3cc(-c4cccc(N)c4)nn3)C(=O)O[C@]12C (stereo partly drawn) [FSM-21877]
MIC (K. pneumoniae; ATCC10031, ATCC10031, read-out: MIC K. pneumoniae ATCC10031): 16 µg/mL (≈ 17.2 µM) | MIC (K. pneumoniae; KPC-2, read-out: MIC K. pneumoniae KPC-2): 32 µg/mL (≈ 34.4 µM) | MIC (A. baumannii; ATCC19606, ATCC19606, read-out: MIC A. baumannii ATCC19606): > 32 µg/mL | MIC (A. baumannii; imipenem-resistant, read-out: MIC A. baumannii imipenem-resistant): > 32 µg/mL | MIC (S. pyogenes; ATCC19615, ATCC19615, read-out: MIC S. pyogenes ATCC19615): 0.5 µg/mL (≈ 0.538 µM) | MIC (S. pyogenes; macrolide-resistant, read-out: MIC S. pyogenes macrolide-resistant): 16 µg/mL (≈ 17.2 µM) | MIC (E. faecalis; ATCC29212, ATCC29212, read-out: MIC E. faecalis ATCC29212): 8 µg/mL (≈ 8.61 µM) | MIC (E. faecalis; Vancomycin-resistant, read-out: MIC E. faecalis Vancomycin-resistant): > 32 µg/mL | MIC (E. coli; ATCC25922, ATCC25922, read-out: MIC E. coli ATCC25922): > 32 µg/mL | MIC (E. coli; read-out: MIC E. coli NDM-1, NDM-1): 32 µg/mL (≈ 34.4 µM) | MIC (S. aureus; ATCC29213, ATCC29213, read-out: MIC S. aureus ATCC29213): > 32 µg/mL | MIC (S. aureus; MRSA / USA100, MRSA: USA100, read-out: MIC S. aureus MRSA: USA100): > 32 µg/mL | MIC (S. aureus; MRSA / USA300, MRSA: USA300, read-out: MIC S. aureus MRSA: USA300): > 32 µg/mL | MIC (S. aureus; USA600, USA600, GISA, read-out: MIC S. aureus USA600, GISA): > 32 µg/mL | MIC (S. aureus; read-out: MIC S. aureus erm A genotype): > 32 µg/mL | MIC (S. pneumoniae; ATCC49619, ATCC49619, read-out: MIC S. pneumoniae ATCC49619): 1 µg/mL (≈ 1.08 µM) | MIC (S. pneumoniae; erm B + mef A genotype, read-out: MIC S. pneumoniae erm B + mef A genotype): 32 µg/mL | MIC (S. pneumoniae; erm B + tet(M, O) genotype, read-out: MIC S. pneumoniae erm B + tet(M, O) genotype): 0.5 µg/mL | MIC (S. pneumoniae; read-out: MIC S. pneumoniae mef A genotype, mef A genotype): 16 µg/mL (≈ 17.2 µM) | MIC (S. pneumoniae; read-out: MIC S. pneumoniae mef A genotype, mef A genotype, first of two such columns (c3)): 8 µg/mL (≈ 8.61 µM) | MIC (H. influenzae; ATCC49247, ATCC49247, read-out: MIC H. influenzae ATCC49247): 32 µg/mL (≈ 34.4 µM) | MIC (H. influenzae; erythro > 4, azithro 1, read-out: MIC H. influenzae erythro > 4, azithro 1): 32 µg/mL (≈ 34.4 µM) | MIC (P. aeruginosa; Pseudomonas aeruginosa, ATCC27853, read-out: MIC P. aeruginosa ATCC27853): > 32 µg/mL

CCC1OC(=O)C(C)C(=O)C(C)C(OC2OC(Cn3cc(-c4cccc(N)n4)nn3)CC(N(C)C)C2O)C(C)(OC)CC(C)CNC(C)C2N(CCCCn3cc(-c4cccc(N)c4)nn3)C(=O)OC12C (stereo not drawn) [FSM-22372]
MIC K. pneumoniae ATCC10031 (K. pneumoniae): >32 µg/mL | MIC K. pneumoniae KPC-2 (K. pneumoniae; KPC-2): >32 µg/mL | MIC K. pneumoniae SHV-12 (K. pneumoniae; SHV-12): >32 µg/mL | MIC K. pneumoniae TEM-10 (K. pneumoniae; TEM-10): >32 µg/mL | MIC A. baumannii ATCC19606 (A. baumannii): >32 µg/mL | MIC A. baumannii IMP-4 (A. baumannii; IMP-4): >32 µg/mL | MIC A. baumannii chromosomal class C (A. baumannii; chromosomal class C): >32 µg/mL | MIC A. baumannii imipenem-resistant (A. baumannii; imipenem-resistant): >32 µg/mL | MIC S. pyogenes ATCC19615 (S. pyogenes): <0.03125 µg/mL | MIC S. pyogenes macrolide-resistant (S. pyogenes; macrolide-resistant): 8 µg/mL (≈ 8.1 µM) | MIC E. faecalis ATCC29212 (E. faecalis): 16 µg/mL (≈ 16.2 µM) | MIC E. faecalis Vancomycin-resistant (E. faecalis; Vancomycin-resistant): >32 µg/mL | MIC E. coli ATCC25922 (E. coli): >32 µg/mL | MIC E. coli CTX-M-14 (E. coli; CTX-M-14): >32 µg/mL | MIC E. coli NDM-1 (E. coli): >32 µg/mL | MIC E. coli TEM-1 (E. coli; TEM-1): >32 µg/mL | MIC S. aureus ATCC29213 (S. aureus): >32 µg/mL | MIC S. aureus MRSA: USA100 (S. aureus): >32 µg/mL | MIC S. aureus MRSA: USA300 (S. aureus): >32 µg/mL | MIC S. aureus USA600, GISA (S. aureus): >32 µg/mL | MIC S. aureus erm A genotype (S. aureus): >32 µg/mL | MIC S. pneumoniae ATCC49619 (S. pneumoniae): <0.03125 µg/mL | MIC S. pneumoniae erm B + mef A genotype (S. pneumoniae; erm B + mef A genotype): >32 µg/mL | MIC S. pneumoniae erm B + tet(M, O) genotype (S. pneumoniae; erm B + tet(M, O) genotype): <0.03125 µg/mL | MIC H. influenzae ATCC49247 (H. influenzae): 16 µg/mL (≈ 16.2 µM) | MIC H. influenzae erythro > 4, azithro 1 (H. influenzae; erythro > 4, azithro 1): 16 µg/mL (≈ 16.2 µM) | MIC P. aeruginosa ATCC27853 (P. aeruginosa; ATCC27853): >32 µg/mL | MIC P. aeruginosa HPA101-1477 (P. aeruginosa; HPA101-1477): >32 µg/mL

CCC1OC(=O)C(C)C(=O)C(C)C(OC2OC(COC(=O)c3ccccc3)C(O)C(N(C)C)C2O)C(C)(OC)CC(C)CNC(C)C2N(CCCCn3cc(-c4cccc(N)c4)nn3)C(=O)OC12C (stereo not drawn) [FSM-21797]
MIC K. pneumoniae ATCC10031 (K. pneumoniae): >32 µg/mL | MIC K. pneumoniae KPC-2 (K. pneumoniae; KPC-2): >32 µg/mL | MIC A. baumannii ATCC19606 (A. baumannii): >32 µg/mL | MIC A. baumannii imipenem-resistant (A. baumannii; imipenem-resistant): >32 µg/mL | MIC S. pyogenes ATCC19615 (S. pyogenes): 8 µg/mL (≈ 8.3 µM) | MIC S. pyogenes macrolide-resistant (S. pyogenes; macrolide-resistant): 32 µg/mL (≈ 33.2 µM) | MIC E. faecalis ATCC29212 (E. faecalis): 32 µg/mL (≈ 33.2 µM) | MIC E. faecalis Vancomycin-resistant (E. faecalis; Vancomycin-resistant): >32 µg/mL | MIC E. coli ATCC25922 (E. coli): >32 µg/mL | MIC E. coli NDM-1 (E. coli): >32 µg/mL | MIC S. aureus ATCC29213 (S. aureus): >32 µg/mL | MIC S. aureus MRSA: USA100 (S. aureus): >32 µg/mL | MIC S. aureus MRSA: USA300 (S. aureus): >32 µg/mL | MIC S. aureus USA600, GISA (S. aureus): >32 µg/mL | MIC S. aureus erm A genotype (S. aureus): >32 µg/mL | MIC S. pneumoniae ATCC49619 (S. pneumoniae): 32 µg/mL (≈ 33.2 µM) | MIC S. pneumoniae erm B + mef A genotype (S. pneumoniae; erm B + mef A genotype): >32 µg/mL | MIC S. pneumoniae erm B + tet(M, O) genotype (S. pneumoniae; erm B + tet(M, O) genotype): 16 µg/mL | MIC H. influenzae ATCC49247 (H. influenzae): >32 µg/mL | MIC H. influenzae erythro > 4, azithro 1 (H. influenzae; erythro > 4, azithro 1): >32 µg/mL | MIC P. aeruginosa ATCC27853 (P. aeruginosa; ATCC27853): >32 µg/mL
